Experimental data taken from patent US10532068B2, “Dual molecular delivery of oligonucleotides and peptide containing conjugates” (Merck Sharp & Dohme Corp., priority 2013, dated 2020).
Strand notation (5' to 3'): a small letter for the sugar, then the base; units joined by * are phosphorothioate-linked, units joined directly phosphodiester-linked; [ ] holds rarer units or linkages, { } end groups; capitals alone tell only the bases. Where no end group is shown, it is not given here. [ ]: non-standard residue; d: D form. {NH2C6-invAb} = cap: inverted abasic residue carrying an aminohexyl phosphate (attachment handle); [invAb] = inverted abasic unit; TGN = not defined here; m = 2'-O-methyl; f = 2'-fluoro

How the values were obtained:
CTNNB1 = assay: In vivo evaluation in mice: liver mRNA knockdown measurement (TaqMan qPCR); parameters: species or system CD-1 mice; details: mice
Description: (§1) Female CD-1 mice (Charles River) were injected in accordance with either a sequential dosing paradigm or a co-dosing paradigm. In the sequential dosing paradigm, the targeted siRNA (SCE) is dosed at t=0 and the targeted peptide is separately dosed up to 2 hr before the SCE (−2 hr) or up to 24 hr after the SCE (+24 hr). In the co-dosing paradigm, the SCE and peptides are co-formulated and dosed together in the same formulation as a single injection at t=0. The mice were dosed either by intravenous (i.v.) or subcutaneous (s.c.) injection of SCE and peptide. For the i.v. doses, the compounds were injected into the tail vein of the mice. For the s.c. doses, the compounds were injected in the subcutaneous space on the back of the mouse between the shoulder blades. At the indicated harvest times (measured from t=0 when the siRNA was dosed, regardless of when the peptide was dosed), the animals were sacrificed and 3 mm liver punches were collected, preserved in RNAlater (Ambion), and stored at 4° C. Separate 5 mm liver punches were collected, placed in 96-well plates, frozen on dry ice, and stored at −80° C. until use.
The 3 mm liver punches were removed from RNAlater and homogenized in Trizol (Invitrogen) using a bead mill tissue lyser (Qiagen); disruption was performed for two 5-minute cycles at 30 Hz. RNA extraction was performed using 1-bromo-2-chloropropane (Acros Organics) and total RNA was isolated from the aqueous phase using the MagMax RNA isolation method (Ambion). […] TaqMan qPCR analysis was performed with an ABI 7900 Real-Time PCR System using TaqMan Fast Advanced Master Mix (Applied Biosystems). All TaqMan probes and primers for CTNNB1 and PPIB (housekeeping gene) were purchased from Applied Biosystems as pre-validated gene expression assays. Results are calculated by the comparative Ct method, where the difference between the CTNNB1 Ct value and the PPIB Ct value (ΔCt) is calculated and then further normalized relative to the PBS control by taking a second difference (ΔΔCt), as described previously (1).

[1] = Lethality observed in the in vivo evaluation in mice; parameters: species or system CD-1 mice; key to lethal at this dose (asterisk at targeted peptide dose): *: lethal at this dose
Description: as §1

[2] = siRNA metabolic stability (FIG. 6 legend); details: order siRNA-I>siRNA-V>siRNA-VI
[3] = Table 6, sequential, peptide IV 15 min after siRNA IV, TGN-L-siRNA-III 0.5 mg/kg, peptide 2 mg/kg
[4] = Table 6, sequential, peptide IV 15 min after siRNA IV, TGN-L-siRNA-III 0.5 mg/kg, peptide 10 mg/kg
[5] = Table 6, sequential, peptide IV 15 min after siRNA IV, TGN-L-siRNA-III 0.5 mg/kg, peptide 25 mg/kg
[6] = Table 6, TGN-L-siRNA-III 0.5 mg/kg IV, peptide 25 mg/kg IV 15 min after siRNA
[7] = Table 6, TGN-L-siRNA-III 0.25 mg/kg IV, peptide 10 mg/kg IV 15 min after siRNA
[8] = Table 6, sequential, peptide IV 15 min after siRNA IV, TGN-L-siRNA-II 0.25 mg/kg, peptide 1 mg/kg
[9] = Table 6, sequential, peptide IV 15 min after siRNA IV, TGN-L-siRNA-II 0.25 mg/kg, peptide 3 mg/kg
[10] = Table 6, sequential, peptide IV 15 min after siRNA IV, TGN-L-siRNA-III 0.25 mg/kg, peptide 5 mg/kg

TGN-S-S-SEQ ID NO: 1248 (D) (C[dF][dL][dE][dE][dL][dW][dE][dL][dL][dE][dH][dL][dL]; not fully specified (residue 1); listed as Homo sapiens)
In vivo mRNA knockdown (%) (CTNNB1; [3]): 42%
In vivo mRNA knockdown (%) (CTNNB1; [4]): 74%
In vivo mRNA knockdown (%) (CTNNB1; [5]): 58%
lethal at this dose (asterisk at targeted peptide dose) [1, 6]: 25*

TGN-S-S-SEQ ID NO: 1419 (D) (C[dF][dL][dE][dE][dL][dW]G[dL][dL][dE][dH][dL][dL]; not fully specified (residue 1); listed as Homo sapiens)
In vivo mRNA knockdown (%) (CTNNB1; [3]): 43%
In vivo mRNA knockdown (%) (CTNNB1; [4]): 78%
In vivo mRNA knockdown (%) (CTNNB1; [5]): 76%
lethal at this dose (asterisk at targeted peptide dose) [1, 6]: 25*

TGN-S-S-SEQ ID NO: 1628 (D) ([dC]G[dL][dL][dA][dI]X[dE][dI][dE][dE][dL][dL][dE][dE]G[dL][dE][dN][dL][dI][dD][dW][dW][dN][dS]; not fully specified; also: TGN via disulfide; listed as Homo sapiens)
Mortality (words printed in the knockdown column) [1, 7]: All mice died
lethal at this dose (asterisk at targeted peptide dose) [1, 7]: 10*

TGN-S-S-SEQ ID NO: 1654 (D) (CG[dL][dL][dE][dE][dI][dE][dE][dL][dL][dE][dE]G[dL][dE][dN][dL][dI][dD][dW]G[dN][dS]; not fully specified (residue 1); listed as Homo sapiens)
In vivo mRNA knockdown (%) (CTNNB1; Table 6, sequential, peptide IV 15 min after siRNA IV, TGN-L-siRNA-III 0.25 mg/kg, peptide 2 mg/kg): 51%
In vivo mRNA knockdown (%) (CTNNB1; Table 6, sequential, peptide IV 15 min after siRNA IV, TGN-L-siRNA-III 0.25 mg/kg, peptide 10 mg/kg): 72%
In vivo mRNA knockdown (%) (CTNNB1; Table 6, sequential, peptide IV 15 min after siRNA IV, TGN-L-siRNA-III 0.25 mg/kg, peptide 50 mg/kg): 65%
lethal at this dose (asterisk at targeted peptide dose) ([1]; Table 6, TGN-L-siRNA-III 0.25 mg/kg IV, peptide 50 mg/kg IV 15 min after siRNA): 50*

TGN-S-S-SEQ ID NO: 1733 (D): TGN-S-S-peptide, peptide AC-GLFGALAEALAEALAEHLAEALAEALEALAAGGSC
In vivo mRNA knockdown (%) (CTNNB1; [8]): 60%
In vivo mRNA knockdown (%) (CTNNB1; [9]): 75%
In vivo mRNA knockdown (%) (CTNNB1; Table 6, sequential, peptide IV 15 min after siRNA IV, TGN-L-siRNA-II 0.25 mg/kg, peptide 10 mg/kg): 58%
In vivo mRNA knockdown (%) (CTNNB1; Table 6, sequential, peptide IV 15 min after siRNA IV, TGN-L-siRNA-II 0.25 mg/kg, peptide 50 mg/kg): 50%
In vivo mRNA knockdown (%) (CTNNB1; [10]): 73%
In vivo mRNA knockdown (%) (CTNNB1; Table 7, TGN-L-siRNA-II 0.25 mg/kg, peptide 3 mg/kg, Sequential dosing-IV (peptide 15 min after siRNA)): 69%
In vivo mRNA knockdown (%) (CTNNB1; Table 7, TGN-L-siRNA-II 0.25 mg/kg, peptide 3 mg/kg, Sequential dosing-SC (peptide 15 min after siRNA)): 47%
In vivo mRNA knockdown (%) (CTNNB1; Table 7, TGN-L-siRNA-II 0.25 mg/kg, peptide 10 mg/kg, Sequential dosing-IV (peptide 15 min after siRNA)): 58%
In vivo mRNA knockdown (%) (CTNNB1; Table 7, TGN-L-siRNA-II 0.25 mg/kg, peptide 10 mg/kg, Sequential dosing-SC (peptide 15 min after siRNA)): 67%

TGN-S-S-SEQ ID NO: 1734 (D): TGN-S-S-peptide, peptide AC-GLFEAIEGFIENGWEGLAELAEALEALAAGGSC
In vivo mRNA knockdown (%) (CTNNB1; [10]): 61%

TGN-S-S-SEQ ID NO: 1738 (D) (G[dL][dF]G[dE][dI][dE][dE][dL][dI][dE][dE]G[dL][dE][dN][dL][dI][dD][dW]G[dN]G[dL][dA][dE][dL][dA][dE][dA][dL][dE][dA][dL][dA][dA]GG[dS][dC]; not fully specified; also: disulfide to TGN peptide via C-terminal Cys; listed as Homo sapiens)
In vivo mRNA knockdown (%) (CTNNB1; [8]): 25%
In vivo mRNA knockdown (%) (CTNNB1; [9]): 44%

TGN-S-S-SEQ ID NO: 1740 (D): TGN-S-S-peptide, peptide GLFEAIEGFIENGWEGLAELAEALEALAAGGSC (G[dL][dF][dE][dA][dI][dE]G[dF][dI][dE][dN]G[dW][dE]G[dL][dA][dE][dL][dA][dE][dA][dL][dE][dA][dL][dA][dA]GG[dS][dC]; not fully specified; also: disulfide to TGN peptide via C-terminal Cys; listed as Homo sapiens)
In vivo mRNA knockdown (%) (CTNNB1; [8]): 23%
In vivo mRNA knockdown (%) (CTNNB1; [9]): 42%

TGN-S-S-SEQ ID NO: 1740 (L): TGN-S-S-peptide, peptide GLFEAIEGFIENGWEGLAELAEALEALAAGGSC (GLFEAIEGFIENGWEGLAELAEALEALAAGGSC(TGN); reading uncertain; also: TGN attached via disulfide (S-S); listed as Homo sapiens)
In vivo mRNA knockdown (%) (CTNNB1; [9]): 20%

TGN-S-S-SEQ ID NO: 1741(L): TGN-S-S-peptide, peptide GLFGALAEALAEALAEHLAEALAEALEALAAGGSC (GLFGALAEALAEALAEHLAEALAEALEALAAGGSC(TGN); reading uncertain; also: TGN attached via disulfide (S-S); listed as Homo sapiens)
In vivo mRNA knockdown (%) (CTNNB1; [9]): 24%

TGN-S-S-SEQ ID NO: 1744 (D) ([dC][dE][dE][dN][dW][dI]G[dL][dF]GGG[dN][dI][dW][dE][dE][dE][dE][dI][dL][dD][dL][dL]; also: disulfide to TGN peptide via N-terminal Cys; listed as Homo sapiens)
In vivo mRNA knockdown (%) (CTNNB1; [3]): 28%
In vivo mRNA knockdown (%) (CTNNB1; [4]): 33%

TGN-S-S-SEQ ID NO: 1746 (D): TGN-S-S-peptide, peptide CEALFGKINAIFIGKL ([dC][dE][dA][dL][dF]G[dK][dI][dN][dA][dI][dF][dI]G[dK][dL]; also: disulfide to TGN peptide via N-terminal Cys; listed as Homo sapiens)
In vivo mRNA knockdown (%) (CTNNB1; [3]): 31%
In vivo mRNA knockdown (%) (CTNNB1; [4]): 25%

siRNA-IV: CTNNB1 ds siRNA, passenger SEQ ID NO 1807 (clickA, 5Chol), guide SEQ ID NO 1806 (sense CUGUUGGAUUGAUUCGAAAUU; guide TUUCGAAUCAAUCCAACAGUU; clickA; 5' cholesterol; (1)..(1) aminohexyl phosphate inverted abasic cap; (1)..(2) 2′-O-methyl; (3)..(3) 2′-deoxy-2′-fluoro; (4)..(5) 2′-O-methyl; (6)..(8) 2′-deoxy-2′-fluoro; (9)..(10) 2′-O-methyl; (11)..(12) 2′-deoxy-2′-fluoro; (13)..(15) 2′-O-methyl; (16)..(16) 2′-deoxy-2′-fluoro; (17)..(17) 2′ propagyl; (18)..(19) 2′-deoxy-2′-fluoro; (20)..(21) 2′-O-methyl; (20)..(21) phosphorothioate internucleotide linkage; (21)..; (1)..(1) terminal vinyl phosphate; (1)..(1) 2′-methoxyethoxy; (2)..(21) ribonucleotide unmodified or modified as described for this sequence; (2)..(2) 2′-deoxy-2′-fluoro; …)
In vivo mRNA knockdown (%) (CTNNB1; Table 6, siRNA-IV 0.5 mg/kg IV, peptide dose 0): 25%
In vivo mRNA knockdown (%) (CTNNB1; Table 6, siRNA-IV 2 mg/kg IV, peptide dose 0): 25%
In vivo mRNA knockdown (%) (CTNNB1; Table 6, siRNA-IV 5 mg/kg IV, peptide dose 0): 35%

siRNA-VI: CTNNB1 ds siRNA, passenger SEQ ID NO 1803, guide SEQ ID NO 1809 (sense {NH2C6-invAb}-mCmUfGmUmUfGfGfAmUmUfGfAmUmUmCfGfAfAfAmU*mU[invAb]; guide fUfUfUmCfGfAfAmUmCfAfAmUmCfCfAfAmCfAfGmU*mU)
siRNA stability (metabolic stability) [2]: more unstable
